Results on one molecule are retold here after the supplement of paper PMC12076712.

Common to all, as to experiment: pIC50, kinobeads binding competition
Common to all, as to conditions: cell material: Jurkat lysate

Assay [1] deals with ACVR2B (UniProt Q13705).
The target of assay [2] is T1, ULK1 (UniProt O75385).
T1 sequence (whole entry): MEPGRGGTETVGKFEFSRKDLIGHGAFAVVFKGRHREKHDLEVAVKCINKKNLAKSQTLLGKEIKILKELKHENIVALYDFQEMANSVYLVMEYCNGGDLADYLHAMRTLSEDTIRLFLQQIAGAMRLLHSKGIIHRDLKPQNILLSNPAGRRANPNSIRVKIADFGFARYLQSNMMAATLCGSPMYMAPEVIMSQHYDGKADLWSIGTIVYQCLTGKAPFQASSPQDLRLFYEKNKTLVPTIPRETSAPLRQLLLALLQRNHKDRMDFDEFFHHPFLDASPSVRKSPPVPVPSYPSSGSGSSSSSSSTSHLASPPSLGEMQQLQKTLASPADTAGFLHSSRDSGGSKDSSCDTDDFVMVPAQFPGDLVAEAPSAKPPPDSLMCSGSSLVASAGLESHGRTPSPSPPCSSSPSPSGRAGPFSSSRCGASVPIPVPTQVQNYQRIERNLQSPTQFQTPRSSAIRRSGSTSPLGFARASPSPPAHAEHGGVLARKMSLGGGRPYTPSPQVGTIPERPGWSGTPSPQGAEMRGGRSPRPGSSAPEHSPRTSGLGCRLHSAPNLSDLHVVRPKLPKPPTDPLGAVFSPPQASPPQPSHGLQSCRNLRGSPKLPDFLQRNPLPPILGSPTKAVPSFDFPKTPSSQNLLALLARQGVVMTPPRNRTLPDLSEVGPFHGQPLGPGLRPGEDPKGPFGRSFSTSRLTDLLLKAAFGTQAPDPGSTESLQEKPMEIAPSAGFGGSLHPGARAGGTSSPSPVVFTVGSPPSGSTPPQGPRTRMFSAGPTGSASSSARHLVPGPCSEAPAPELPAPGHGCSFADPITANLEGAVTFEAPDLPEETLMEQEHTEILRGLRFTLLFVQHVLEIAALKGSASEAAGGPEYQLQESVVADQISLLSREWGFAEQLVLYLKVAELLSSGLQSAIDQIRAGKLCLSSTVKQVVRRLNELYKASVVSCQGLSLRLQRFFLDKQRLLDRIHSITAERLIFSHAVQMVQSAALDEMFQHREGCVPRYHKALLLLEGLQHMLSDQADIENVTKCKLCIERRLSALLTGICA

Assay [3] addresses UniProt Q9Y2I7.
Assay [4] concerns the target T2, CAMK4 (UniProt Q16566).
T2 sequence (whole entry): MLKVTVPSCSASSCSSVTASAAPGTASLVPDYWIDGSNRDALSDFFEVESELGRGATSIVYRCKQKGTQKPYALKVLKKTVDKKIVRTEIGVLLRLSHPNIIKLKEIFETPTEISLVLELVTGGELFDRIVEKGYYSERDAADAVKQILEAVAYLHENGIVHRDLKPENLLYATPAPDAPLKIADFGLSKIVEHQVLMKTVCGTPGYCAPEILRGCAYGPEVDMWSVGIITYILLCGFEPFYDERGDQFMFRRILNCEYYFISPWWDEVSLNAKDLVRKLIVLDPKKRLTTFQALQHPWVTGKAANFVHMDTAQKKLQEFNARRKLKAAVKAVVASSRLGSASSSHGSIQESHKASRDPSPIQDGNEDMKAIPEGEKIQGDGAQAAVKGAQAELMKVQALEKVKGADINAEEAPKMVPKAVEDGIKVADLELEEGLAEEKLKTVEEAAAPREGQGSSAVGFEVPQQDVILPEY

Assay [5] addresses TGFBR2 (UniProt P37173).
In assay [6] the target is FER (UniProt P16591).
The target in assay [7] is CLK1 (UniProt P49759).
Assay [8] has as its target T3, TEC (UniProt P42680).
T3 sequence (whole entry): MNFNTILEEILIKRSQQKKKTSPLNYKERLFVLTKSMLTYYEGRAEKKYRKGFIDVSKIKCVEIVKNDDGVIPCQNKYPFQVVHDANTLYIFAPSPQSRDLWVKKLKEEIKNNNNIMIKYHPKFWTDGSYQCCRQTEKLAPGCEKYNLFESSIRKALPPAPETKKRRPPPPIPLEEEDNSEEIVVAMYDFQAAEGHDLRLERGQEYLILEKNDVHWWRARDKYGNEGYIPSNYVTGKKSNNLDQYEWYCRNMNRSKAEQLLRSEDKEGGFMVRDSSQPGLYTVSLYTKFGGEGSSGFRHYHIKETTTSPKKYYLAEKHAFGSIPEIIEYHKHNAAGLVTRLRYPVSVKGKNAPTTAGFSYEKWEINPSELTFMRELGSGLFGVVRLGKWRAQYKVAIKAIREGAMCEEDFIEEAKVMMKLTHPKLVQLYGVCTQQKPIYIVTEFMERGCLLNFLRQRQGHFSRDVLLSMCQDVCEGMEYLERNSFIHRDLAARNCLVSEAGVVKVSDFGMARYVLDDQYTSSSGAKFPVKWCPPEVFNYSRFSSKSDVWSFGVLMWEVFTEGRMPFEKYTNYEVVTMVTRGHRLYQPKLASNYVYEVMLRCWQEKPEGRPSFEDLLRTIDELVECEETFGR

For assay [9], the target named is T4, UniProt P52564.
T4 sequence (whole entry): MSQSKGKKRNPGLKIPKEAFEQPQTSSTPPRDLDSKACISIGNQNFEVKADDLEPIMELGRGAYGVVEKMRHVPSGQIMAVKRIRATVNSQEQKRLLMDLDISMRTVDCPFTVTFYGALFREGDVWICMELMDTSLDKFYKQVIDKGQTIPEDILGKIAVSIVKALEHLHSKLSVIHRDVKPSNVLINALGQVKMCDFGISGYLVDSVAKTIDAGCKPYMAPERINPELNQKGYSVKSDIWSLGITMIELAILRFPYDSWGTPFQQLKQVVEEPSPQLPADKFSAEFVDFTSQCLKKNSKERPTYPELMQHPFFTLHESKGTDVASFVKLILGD

Assay [10] addresses AAK1 (UniProt Q2M2I8).
In assay [11] the target is BUB1 (UniProt O43683).
Chain of BUB1 (O43683 whole entry, looked up): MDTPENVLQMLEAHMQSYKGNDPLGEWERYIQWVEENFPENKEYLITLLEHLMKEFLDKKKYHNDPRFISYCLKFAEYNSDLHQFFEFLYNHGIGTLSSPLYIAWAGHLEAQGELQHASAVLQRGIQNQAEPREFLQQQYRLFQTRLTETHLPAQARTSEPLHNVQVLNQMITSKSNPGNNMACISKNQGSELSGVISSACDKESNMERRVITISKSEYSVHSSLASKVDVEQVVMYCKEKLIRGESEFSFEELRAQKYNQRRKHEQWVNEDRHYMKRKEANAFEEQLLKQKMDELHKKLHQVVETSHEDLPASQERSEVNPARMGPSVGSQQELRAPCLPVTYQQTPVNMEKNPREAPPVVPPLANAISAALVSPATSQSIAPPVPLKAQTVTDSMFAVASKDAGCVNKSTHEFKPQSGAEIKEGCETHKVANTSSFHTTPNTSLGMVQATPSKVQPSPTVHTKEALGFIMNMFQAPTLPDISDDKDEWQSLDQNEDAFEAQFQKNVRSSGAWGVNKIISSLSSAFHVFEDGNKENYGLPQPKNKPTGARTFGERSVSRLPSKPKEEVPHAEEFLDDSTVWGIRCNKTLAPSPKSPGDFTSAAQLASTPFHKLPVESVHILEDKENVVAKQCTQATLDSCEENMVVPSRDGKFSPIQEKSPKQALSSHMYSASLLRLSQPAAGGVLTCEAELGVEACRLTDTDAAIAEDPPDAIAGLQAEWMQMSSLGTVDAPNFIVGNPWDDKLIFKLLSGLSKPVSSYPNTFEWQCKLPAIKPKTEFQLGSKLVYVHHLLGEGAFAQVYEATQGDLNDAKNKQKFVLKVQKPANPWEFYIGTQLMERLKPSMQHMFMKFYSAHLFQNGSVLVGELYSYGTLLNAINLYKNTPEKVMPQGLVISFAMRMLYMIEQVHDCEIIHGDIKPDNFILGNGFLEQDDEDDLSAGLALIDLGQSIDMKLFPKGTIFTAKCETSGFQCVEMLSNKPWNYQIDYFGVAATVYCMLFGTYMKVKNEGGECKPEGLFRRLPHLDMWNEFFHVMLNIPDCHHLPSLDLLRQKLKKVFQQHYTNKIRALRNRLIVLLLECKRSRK

Chain of CLK1 (P49759 whole entry, looked up): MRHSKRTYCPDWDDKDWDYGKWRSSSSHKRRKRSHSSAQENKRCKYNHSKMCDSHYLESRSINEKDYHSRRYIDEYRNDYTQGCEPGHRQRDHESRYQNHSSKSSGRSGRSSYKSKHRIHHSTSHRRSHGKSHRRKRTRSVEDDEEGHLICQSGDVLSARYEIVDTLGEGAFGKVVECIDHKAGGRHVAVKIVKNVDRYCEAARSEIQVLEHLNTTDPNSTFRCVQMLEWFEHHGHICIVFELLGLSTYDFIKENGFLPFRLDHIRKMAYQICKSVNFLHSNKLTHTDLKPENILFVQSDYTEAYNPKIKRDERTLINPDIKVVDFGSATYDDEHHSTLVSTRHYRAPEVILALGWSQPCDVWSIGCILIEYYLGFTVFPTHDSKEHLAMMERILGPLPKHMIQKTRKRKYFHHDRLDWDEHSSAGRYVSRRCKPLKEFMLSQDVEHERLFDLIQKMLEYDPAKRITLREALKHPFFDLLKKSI
Chain of AAK1 (Q2M2I8 whole entry, looked up): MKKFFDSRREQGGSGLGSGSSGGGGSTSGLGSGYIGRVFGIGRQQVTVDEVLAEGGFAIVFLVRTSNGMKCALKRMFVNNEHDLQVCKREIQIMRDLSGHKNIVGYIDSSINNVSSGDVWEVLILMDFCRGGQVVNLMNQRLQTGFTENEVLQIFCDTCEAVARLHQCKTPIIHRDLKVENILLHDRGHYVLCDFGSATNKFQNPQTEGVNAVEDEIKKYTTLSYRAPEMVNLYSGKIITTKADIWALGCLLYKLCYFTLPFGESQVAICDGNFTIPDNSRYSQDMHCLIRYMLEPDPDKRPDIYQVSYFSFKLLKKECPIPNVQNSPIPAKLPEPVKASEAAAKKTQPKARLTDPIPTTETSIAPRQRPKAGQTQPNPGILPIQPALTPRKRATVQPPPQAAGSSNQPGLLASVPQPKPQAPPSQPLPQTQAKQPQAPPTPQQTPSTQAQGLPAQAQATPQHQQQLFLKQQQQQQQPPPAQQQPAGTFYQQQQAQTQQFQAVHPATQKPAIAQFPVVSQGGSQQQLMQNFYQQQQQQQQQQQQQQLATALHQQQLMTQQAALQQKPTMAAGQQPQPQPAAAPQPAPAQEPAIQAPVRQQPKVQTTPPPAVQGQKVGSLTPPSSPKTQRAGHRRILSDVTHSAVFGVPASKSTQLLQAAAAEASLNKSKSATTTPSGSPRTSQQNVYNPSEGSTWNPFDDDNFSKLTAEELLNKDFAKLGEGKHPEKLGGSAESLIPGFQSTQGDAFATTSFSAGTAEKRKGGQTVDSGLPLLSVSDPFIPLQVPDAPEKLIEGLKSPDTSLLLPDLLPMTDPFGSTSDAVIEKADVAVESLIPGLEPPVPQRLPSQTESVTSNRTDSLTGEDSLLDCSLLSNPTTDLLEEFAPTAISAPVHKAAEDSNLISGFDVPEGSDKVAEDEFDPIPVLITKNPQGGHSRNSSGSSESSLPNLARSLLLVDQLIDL
Chain of FER (P16591 whole entry, looked up): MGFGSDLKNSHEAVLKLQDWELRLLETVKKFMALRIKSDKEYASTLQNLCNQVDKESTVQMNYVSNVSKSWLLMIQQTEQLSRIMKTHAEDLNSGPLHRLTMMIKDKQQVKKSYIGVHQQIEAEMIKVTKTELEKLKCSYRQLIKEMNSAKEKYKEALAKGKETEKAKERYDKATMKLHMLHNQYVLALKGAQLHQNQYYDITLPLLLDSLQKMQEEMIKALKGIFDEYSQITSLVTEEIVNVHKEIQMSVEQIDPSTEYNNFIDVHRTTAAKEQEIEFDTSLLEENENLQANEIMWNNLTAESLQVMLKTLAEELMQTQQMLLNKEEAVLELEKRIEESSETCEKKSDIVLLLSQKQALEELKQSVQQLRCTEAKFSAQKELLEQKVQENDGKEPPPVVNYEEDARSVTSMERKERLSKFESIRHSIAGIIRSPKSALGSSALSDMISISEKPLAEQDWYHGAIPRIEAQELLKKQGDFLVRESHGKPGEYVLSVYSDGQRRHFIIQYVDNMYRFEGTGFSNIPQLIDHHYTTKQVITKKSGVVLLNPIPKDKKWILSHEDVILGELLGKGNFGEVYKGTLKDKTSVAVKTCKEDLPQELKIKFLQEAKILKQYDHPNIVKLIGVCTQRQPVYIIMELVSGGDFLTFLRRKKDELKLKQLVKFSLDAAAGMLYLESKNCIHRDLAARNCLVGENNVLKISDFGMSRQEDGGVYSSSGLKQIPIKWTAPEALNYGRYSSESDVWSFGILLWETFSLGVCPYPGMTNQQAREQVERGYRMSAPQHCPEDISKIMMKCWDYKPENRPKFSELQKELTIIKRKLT
Chain of ACVR2B (Q13705 whole entry): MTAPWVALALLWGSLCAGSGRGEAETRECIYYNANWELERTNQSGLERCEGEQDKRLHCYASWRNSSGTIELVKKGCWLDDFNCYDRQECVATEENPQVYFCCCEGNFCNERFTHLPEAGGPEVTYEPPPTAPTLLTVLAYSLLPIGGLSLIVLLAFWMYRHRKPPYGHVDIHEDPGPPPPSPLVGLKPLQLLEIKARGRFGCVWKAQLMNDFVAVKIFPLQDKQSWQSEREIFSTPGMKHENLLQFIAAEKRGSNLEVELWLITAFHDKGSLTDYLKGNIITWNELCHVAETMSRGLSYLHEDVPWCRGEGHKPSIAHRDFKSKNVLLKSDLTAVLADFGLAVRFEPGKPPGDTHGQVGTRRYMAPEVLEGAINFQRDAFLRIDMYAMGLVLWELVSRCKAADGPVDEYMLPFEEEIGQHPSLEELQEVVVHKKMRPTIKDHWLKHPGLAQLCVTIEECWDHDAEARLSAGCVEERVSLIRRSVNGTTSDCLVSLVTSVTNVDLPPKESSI
Chain of TGFBR2 (P37173 whole entry): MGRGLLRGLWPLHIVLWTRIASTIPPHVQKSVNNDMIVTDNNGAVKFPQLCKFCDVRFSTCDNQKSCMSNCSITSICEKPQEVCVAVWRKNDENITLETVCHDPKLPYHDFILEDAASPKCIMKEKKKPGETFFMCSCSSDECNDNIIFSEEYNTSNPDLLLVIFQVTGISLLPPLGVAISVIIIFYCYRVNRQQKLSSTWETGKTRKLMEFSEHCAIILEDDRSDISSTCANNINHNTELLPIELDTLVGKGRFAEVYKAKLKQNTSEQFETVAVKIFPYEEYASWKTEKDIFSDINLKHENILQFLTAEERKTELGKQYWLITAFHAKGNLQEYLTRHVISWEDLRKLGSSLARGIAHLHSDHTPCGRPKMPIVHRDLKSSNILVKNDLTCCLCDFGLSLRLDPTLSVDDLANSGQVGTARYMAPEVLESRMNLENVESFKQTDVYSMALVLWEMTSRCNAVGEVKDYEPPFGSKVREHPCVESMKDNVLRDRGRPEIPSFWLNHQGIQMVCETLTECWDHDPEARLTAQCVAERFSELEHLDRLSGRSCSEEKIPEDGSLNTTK

As usually defined, the pIC50 is −log10 of the IC50, conventionally taken in molar units. In the case of `CCc1cnn2c(NCc3ccc[n+]([O-])c3)cc(N3CCCC[C@H]3CCO)nc12` [dinaciclib], the pIC50 in assay [1], in assay [2], in [3], in assay [4], in assay [5] and in assay [6] was below 4.52 each time. In addition, the pIC50 in assay [7] is 5.13; in assay [8], below 4.52; in [9], below 4.52; in assay [10], below 4.52; in [11] it was below 4.52.
